Key:
[1] = excess molar enthalpy (molar enthalpy of mixing); xn = mol fraction of the nth substance listed; details: 308.15 K, Liquid, Calvet calorimetry
[2] = molar heat capacity at constant pressure; xn = mol fraction of the nth substance listed; details: 100 kPa, Liquid

O=C1CCCCCC1 [cycloheptanone] + C1CCOCC1
[1], 1e-07 kPa
Details	excess molar enthalpy [kJ/mol]
x2 = 0.0898	0.0549
x2 = 0.1356	0.0749
x2 = 0.1846	0.0896
x2 = 0.2366	0.104
x2 = 0.2882	0.114
x2 = 0.3312	0.119
x2 = 0.3942	0.123
x2 = 0.4412	0.125
x2 = 0.4895	0.124
x2 = 0.5326	0.123
x2 = 0.5842	0.12
x2 = 0.6335	0.116
x2 = 0.6875	0.109
x2 = 0.7289	0.102
x2 = 0.7789	0.092
x2 = 0.8278	0.0774
x2 = 0.8799	0.0612
x2 = 0.9199	0.0434

molar heat capacity at constant pressure [J/K/mol], [2], Extra sensitive DSC
Details	293.15 K	298.15 K	303.15 K	308.15 K
x2 = 0.1121	196.3	197.43	198.93	200.52
x2 = 0.1652	194.07	195.27	196.82	198.49
x2 = 0.2103	192.18	193.43	195.03	196.74
x2 = 0.2652	189.86	191.15	192.76	194.53
x2 = 0.3187	187.56	188.91	190.53	192.28
x2 = 0.3562	185.92	187.28	188.93	190.71
x2 = 0.4036	183.78	185.22	186.84	188.65
x2 = 0.4562	181.33	182.82	184.44	186.27
x2 = 0.4921	179.6	181.13	182.76	184.65
x2 = 0.5341	177.51	179.07	180.74	182.63
x2 = 0.5896	174.63	176.29	177.96	179.93
x2 = 0.6231	172.8	174.52	176.25	178.18
x2 = 0.6741	169.93	171.69	173.45	175.49
x2 = 0.7256	166.92	168.74	170.53	172.58
x2 = 0.7769	163.72	165.58	167.38	169.46
x2 = 0.8321	160.14	162	163.83	165.92
x2 = 0.8754	157.18	159.06	160.84	162.89
x2 = 0.9365	152.82	154.62	156.31	158.31

O=C1CCCCC1 [cyclohexanone] + C1COCCO1
Details	excess molar enthalpy, 100 kPa [kJ/mol]	molar heat capacity at constant pressure, 293.15 K [J/K/mol]	molar heat capacity at constant pressure, 298.15 K [J/K/mol]	molar heat capacity at constant pressure, 303.15 K [J/K/mol]	molar heat capacity at constant pressure, 308.15 K [J/K/mol]
[1], x2 = 0.0792	0.0817	–	–	–	–
[1], x2 = 0.1286	0.124	–	–	–	–
[1], x2 = 0.1749	0.16	–	–	–	–
[1], x2 = 0.2236	0.192	–	–	–	–
[1], x2 = 0.2743	0.22	–	–	–	–
[1], x2 = 0.3289	0.245	–	–	–	–
[1], x2 = 0.3729	0.262	–	–	–	–
[1], x2 = 0.4298	0.279	–	–	–	–
[1], x2 = 0.4715	0.287	–	–	–	–
[1], x2 = 0.5242	0.293	–	–	–	–
[1], x2 = 0.5735	0.293	–	–	–	–
[1], x2 = 0.6199	0.289	–	–	–	–
[1], x2 = 0.7182	0.262	–	–	–	–
[1], x2 = 0.7628	0.241	–	–	–	–
[1], x2 = 0.8193	0.205	–	–	–	–
[1], x2 = 0.8672	0.165	–	–	–	–
[1], x2 = 0.9173	0.113	–	–	–	–
[2], x2 = 0.0799	–	173.61	175.65	177.71	179.75
[2], x2 = 0.1351	–	171.94	173.94	175.96	177.96
[2], x2 = 0.1965	–	170.17	172.12	174.08	176.03
[2], x2 = 0.2378	–	169.01	170.93	172.86	174.77
[2], x2 = 0.2874	–	167.66	169.54	171.43	173.28
[2], x2 = 0.3258	–	166.66	168.49	170.34	172.17
[2], x2 = 0.3642	–	165.66	167.46	169.27	171.07
[2], x2 = 0.4195	–	164.26	166.02	167.78	169.52
[2], x2 = 0.4625	–	163.21	164.92	166.62	168.33
[2], x2 = 0.5061	–	162.15	163.82	165.49	167.15
[2], x2 = 0.5543	–	161.01	162.63	164.25	165.88
[2], x2 = 0.6023	–	159.9	161.47	163.05	164.62
[2], x2 = 0.6487	–	158.83	160.36	161.9	163.44
[2], x2 = 0.6946	–	157.82	159.29	160.78	162.27
[2], x2 = 0.7412	–	156.79	158.22	159.66	161.12
[2], x2 = 0.7845	–	155.87	157.25	158.66	160.06
[2], x2 = 0.8398	–	154.71	156.04	157.39	158.74
[2], x2 = 0.8975	–	153.56	154.82	156.1	157.39

Source: the NIST ThermoML archive (doi:10.1021/acs.jced.6b00606)
